What all share (assay): Preemergence field plot evaluation of percent weed control
Common to all, as to format: in vivo
Common to all, as to conditions: visual, 60 days after application

One test has as its system Setaria verticilliata. As to the method:
(§1) In the following examples, synergism is determined by the Colby^1 method, i.e. the expected (or predicted) response of the combination is calculated by taking the product of the observed response for each individual component of the combination when applied alone divided by 100 and subtracting this value from the sum of the observed response for each component when applied alone. Synergism of the combination is then determined by comparing the observed response of the combination to the expected (or predicted) response as calculated from the observed response of each individual component alone.
(§2) The foregoing is illustrated mathematically below, wherein a combination, C, is composed of component A plus component B and Obs. designates the observed response of the combination C. [formula]
(§3) Formulations containing imazamox^1, pendimethalin^2 and an imazamox/pendimethalin combination^3 are diluted with water and applied preemergence at volumes of 200 L/ha to 400 L/ha to field plots to provide the rates shown in Table I. 60 days after application, the plots are visually evaluted for percent weed control. The results are summarized in Table I. If more than one plot is included in an evaluation, the results are averaged.
(§4) ^1 BOLERO® 40 SL, an imazamox aqueous concentrate commercially available from American Cyanamid Company, Parsippany, N.J.
(§5) ^2 STOMP® 400 SC, a pendimethalin suspension concentrate commercially available from American Cyanamid Company, Parsippany, N.J.
(§6) ^3 An emulsifiable concentrate containing imazamox and pendimethalin.

In the next test the test system is Poa annua. The protocol:
as §1, §2, §3, §4, §5, §6

A further test relates to Polygonum persicaria. The protocol:
as §1, §2, §3, §4, §5, §6

The results in this text go back to patent US6890887B2, “Synergistic herbicidal methods and compositions comprising dinitroaniline and imidazolinone compounds” (BASF Aktiengesellschaft, priority 1999, dated 2005).

SMILES strings stand for the structures.

As to `COCc1cnc(C2=NC(C)(C(C)C)C(=O)N2)c(C(=O)O)c1` (stereo not drawn) [Imazamox, 2-(4-isopropyl-4-methyl-5-oxo-2-imidazolin-2-yl)-5-(methoxymethyl)nicotinic acid], the entries for the “% Weed Control Observed” value in the test on Setaria verticilliata (imazamox 75 g/ha alone), in the test with Poa annua (imazamox 75 g/ha alone) and with Polygonum persicaria (imazamox 75 g/ha alone) were 45%, 68% and 66%, respectively.
Turning to `CCC(CC)Nc1c([N+](=O)[O-])cc(C)c(C)c1[N+](=O)[O-]` [Pendimethalin], the “% Weed Control Observed” value in the test with Setaria verticilliata (pendimethalin 1,125 g/ha alone) is recorded as 86%; in the test with Poa annua (pendimethalin 1,125 g/ha alone), 63%; in the test with Polygonum persicaria (pendimethalin 1,125 g/ha alone), 76%.
